Results taken from PubChem BioAssay (NCI).
Values joined by “and” are separate entries in the source; they are usually repeats but may differ in a detail not shown here. Equal entries are not always repeated.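 Tested at 5 concentrations; 48 h exposure; 96-well plates; endpoints linearly interpolated, else capped at highest concentration. Here, GI50 denotes the concentration required for 50% inhibition of growth. TGI marks complete inhibition of growth.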 Where a SMILES comes first, the peptide text is derived from it. [ ]: non-standard residue; d: D form. Orn = NCCC[CH](N)C(=O)O

Assays:
Assay in all cases: inhibition of tumour cell growth, NCI panel, 48 h
[1] = system: A498 renal
[2] = system: BT-549 breast
[3] = system: CAKI-1 renal
[4] = system: M14 melanoma
[5] = system: NCI-H226 lung
[6] = system: PC-3 prostate
[7] = system: RPMI-8226 leukemia
[8] = system: SF-268 CNS
[9] = system: SNB-75 CNS
[10] = system: SW-620 colon

## O=C(Nc1cccc(-n2cc(-c3ccncc3)c(-c3ccc(O)c(Cl)c3)n2)c1)Nc1ccc(Cl)c(C(F)(F)F)c1
[1]
  GI50: 2470 nM
  TGI: 7750 nM
[2]
  GI50: 1820 nM
  TGI: 4280 nM
[3]
  GI50: 2020 nM
  TGI: 7330 nM
[4]
  GI50: 1790 nM
  TGI: 3770 nM
[5]
  GI50: 2020 nM
  TGI: 4460 nM
[6]
  GI50: 1770 nM
  TGI: 4360 nM
[7]
  GI50: 1670 nM
  TGI: 4630 nM
[8]
  GI50: 2460 nM
  TGI: 8100 nM
[9]
  GI50: 1230 nM
  TGI: 6850 nM
[10]
  GI50: 2780 nM
  TGI: 7620 nM

## Cn1cc(C2=C(c3cccc(NCC(O)CO)c3)C(=O)NC2=O)c2cc(Cl)ccc21 (configuration not stated)
[1]
  GI50: 81.7 nM
  TGI: 4430 nM
[2]
  GI50: 3820 nM
  TGI: 9300 nM
[3]
  GI50: 2560 nM
  TGI: 13200 nM
[4]
  GI50: 6590 nM
  TGI: 18400 nM
[5]
  GI50: 3340 nM
  TGI: 11900 nM
[6]
  GI50: 2880 nM
  TGI: 12900 nM
[7]
  GI50: 5560 nM
  TGI: 13900 nM
[8]
  GI50: 4460 nM
  TGI: 10500 nM
[9]
  GI50: 3450 nM
  TGI: 9550 nM
[10]
  GI50: 4260 nM
  TGI: 15700 nM

## O=C1/C(=c2\c3ccccc3n3c(=O)c4ccccc4nc23)Nc2ccccc21
[1]
  TGI: > 100000 nM
[2]
  TGI: > 100000 nM
[3]
  TGI: > 100000 nM
[4]
  TGI: > 100000 nM
[5]
  TGI: > 100000 nM
[6]
  TGI: > 100000 nM
[7]
  TGI: > 100000 nM
[8]
  TGI: > 100000 nM
[9]
  TGI: > 76100 nM
[10]
  TGI: > 100000 nM

## COc1cc([C@@H]2c3cc4c(cc3[C@H](O)[C@H]3COC(=O)[C@@H]23)OCO4)cc(OC)c1OC
[1]
  GI50: 239 nM and 451 nM
[2]
  GI50: 632 nM and 259 nM
  TGI: > 42500 nM
[3]
  GI50: 448 nM and 258 nM
  TGI: > 35800 nM
[4]
  GI50: 355 nM and 135 nM
  TGI: > 100000 nM
[5]
  GI50: 754 nM and 602 nM
  TGI: > 100000 nM
[6]
  GI50: 362 nM and 510 nM
  TGI: > 100000 nM
[7]
  GI50: 566 nM and 300 nM
  TGI: > 10000 nM and 1370 nM
[8]
  GI50: 722 nM and 445 nM
  TGI: > 100000 nM
[9]
  GI50: 256 nM and 45.5 nM
  TGI: > 100000 nM
[10]
  GI50: 409 nM and 219 nM
  TGI: > 100000 nM

## CC(C)CC1NC(=O)C(CCCN)NC(=O)C(C(C)C)NC(=O)C2CCCN2C(=O)C(Cc2ccccc2)NC(=O)C(CC(C)C)NC(=O)C(CCCN)NC(=O)C(C(C)C)NC(=O)C2CCCN2C(=O)C(Cc2ccccc2)NC1=O (configuration not stated) (cyclo(FPV[Orn]LFPV[Orn]L); configuration not given here)
[1]
  GI50: 92 nM and 106 nM
  TGI: 743 nM and 632 nM
[2]
  GI50: 32.6 nM and 45.9 nM
  TGI: 261 nM and 271 nM
[3]
  GI50: 564 nM and 1020 nM
  TGI: 2140 nM and 7230 nM
[4]
  GI50: 10.1 nM
  TGI: 609 nM and 1520 nM
[5]
  GI50: 20.3 nM and 56.4 nM
  TGI: 1030 nM and 1920 nM
[6]
  GI50: 7.03 nM
  TGI: 140 nM and 1120 nM
[7]
  GI50: < 3.25 nM and 11.4 nM
  TGI: 30.9 nM and 185 nM
[8]
  GI50: 16.8 nM and 59.4 nM
  TGI: 565 nM and 1660 nM
[9]
  GI50: 10.3 nM
  TGI: 149 nM and 63.7 nM
[10]
  GI50: 12.3 nM and 23.9 nM
  TGI: 422 nM and 1170 nM

## COC(=O)C12OCC34C(CC5C(C)=CC(=O)C(O)C5(C)C3C(O)C1O)OC(=O)C(OC(=O)CC(C)C)C24 (configuration not stated)
[1]
  GI50: < 57.5 nM
  TGI: 6.27 nM and < 79.1 nM
[2]
  TGI: 5.49 nM
[3]
  GI50: 120 nM and 87.6 nM
[4]
  GI50: 3.4 nM
  TGI: 12.9 nM and 68.9 nM
[5]
  GI50: < 34.5 nM
[6]
  TGI: 12.1 nM
[7]
  GI50: < 28.9 nM
[8]
  GI50: 67.1 nM and 50 nM
[9]
  GI50: 82.5 nM and 50 nM
[10]
  GI50: 42 nM and 50 nM

## Cn1cc(-c2nc(-c3cn(C)c4ncccc34)cs2)c2cc(F)ccc21
[1]
  GI50: 1910 nM
  TGI: 31300 nM
[2]
  GI50: 2200 nM
  TGI: 37600 nM
[3]
  GI50: 776 nM
  TGI: 11900 nM
[4]
  GI50: 777 nM
  TGI: 12400 nM
[5]
  GI50: 2600 nM
  TGI: > 100000 nM
[6]
  GI50: 2130 nM
  TGI: 32000 nM
[7]
  GI50: 3650 nM
  TGI: > 100000 nM
[8]
  GI50: 3380 nM
  TGI: 47200 nM
[9]
  GI50: 1270 nM
  TGI: 4270 nM
[10]
  GI50: 1230 nM
  TGI: > 100000 nM

## Cc1cc(Cl)ccc1Nc1nc(C(F)(F)F)ccc1C(=O)N/N=C/c1ccc(F)cc1
[1]
  GI50: 1480 nM
  TGI: 5920 nM
[2]
  GI50: 1060 nM
  TGI: 3510 nM
[3]
  GI50: 1820 nM
  TGI: 6550 nM
[4]
  GI50: 1840 nM
  TGI: 9640 nM
[5]
  GI50: 2360 nM
  TGI: 7630 nM
[6]
  GI50: 1850 nM
  TGI: 8640 nM
[7]
  GI50: 1790 nM
  TGI: 7370 nM
[8]
  GI50: 1140 nM
  TGI: 5640 nM
[9]
  GI50: 1550 nM
  TGI: 9450 nM
[10]
  GI50: 2060 nM
  TGI: 13500 nM

## CCN(CC)CCCC(C)Nc1ccnc2cc(Cl)c(SCc3ccccc3)cc12 (configuration not stated)
[1]
  GI50: 1220 nM
  TGI: 2680 nM
[2]
  GI50: 1780 nM
  TGI: 3280 nM
[3]
  GI50: 1190 nM
  TGI: 2940 nM
[4]
  GI50: 189 nM
  TGI: 351 nM
[5]
  GI50: 2710 nM
  TGI: 8480 nM
[6]
  GI50: 1720 nM
  TGI: 3960 nM
[7]
  GI50: 633 nM
  TGI: 2930 nM
[8]
  GI50: 1590 nM
  TGI: 3650 nM
[9]
  GI50: 1660 nM
  TGI: 3320 nM
[10]
  GI50: 928 nM
  TGI: 2920 nM

## CN(C)CCOc1cccc(NC2=C(Cl)C(=O)C(Nc3cccc(OCCN(C)C)c3)=C(Cl)C2=O)c1
[1]
  GI50: 1640 nM
  TGI: 3260 nM
[2]
  GI50: 1720 nM
  TGI: 3120 nM
[3]
  GI50: 1440 nM
  TGI: 2810 nM
[4]
  GI50: 1140 nM
  TGI: 2530 nM
[5]
  GI50: 1810 nM
  TGI: 3930 nM
[6]
  GI50: 1520 nM
  TGI: 3250 nM
[7]
  GI50: 306 nM
  TGI: 1030 nM
[8]
  GI50: 1700 nM
  TGI: 3480 nM
[9]
  GI50: 1930 nM
  TGI: 4870 nM
[10]
  GI50: 207 nM
  TGI: 438 nM

## Cn1c2ccccc2c(=S)c2cc(NC(=O)CCCCC(=O)Nc3ccc4c(c3)c(=S)c3ccccc3n4C)ccc21
[1]
  TGI: > 100000 nM
[2]
  TGI: > 100000 nM
[3]
  TGI: > 100000 nM
[4]
  TGI: > 100000 nM
[5]
  TGI: > 100000 nM
[6]
  TGI: > 100000 nM
[7]
  TGI: > 100000 nM
[8]
  TGI: > 100000 nM
[9]
  TGI: > 100000 nM
[10]
  TGI: > 100000 nM

## N=C1N=Nc2nc(C3(c4nc5n(c4O)C(=N)N=N5)Cc4ccccc4C3=O)c(O)n21 (configuration not stated)
[1]
  TGI: > 43900 nM
[2]
  GI50: > 100000 nM
  TGI: > 100000 nM
[3]
  TGI: > 100000 nM
[4]
  TGI: > 100000 nM
[5]
  TGI: > 100000 nM
[6]
  TGI: > 100000 nM
[7]
  TGI: > 100000 nM
[8]
  TGI: > 100000 nM
[9]
  TGI: > 100000 nM
[10]
  TGI: > 100000 nM
